Source: US20240352046A1, “ECTONUCLEOTIDE PYROPHOSPHATASE-PHOSPHODIESTERASE-1 (ENPP1) INHIBITORS AND USES THEREOF” (1cBio, Inc., priority 2020, published 2024)

biological target: ENPP-1 (Ectonucleotide Pyrophosphatase/Phosphodiesterase 1) (Homo sapiens (Human), UniProt P22413); assay: ENPP1 inhibition assay (AMP Glo, cGAMP substrate); type: biochemical; settings: cGAMP 20 μM substrate, ENPP1 1 nM
Experimental: IC50 values of compounds against ENPP-1 (Ectonucleotide Pyrophosphatase/Phosphodiesterase 1) were determined at Integral BioSciences (India) using AMP Glo (Promega, Cat #V5011). Assay was performed in a 30 μL final volume in a white 96-well Half Area plate (Costar,Cat #3693). Dose response curve for the compounds were prepared in duplicates with starting conc. at 5 μM and a three-fold titration was performed. The reaction buffer consisted of 50 mM Tris (pH 8.0), 0.5 mM CaCl2), 1 μM ZnCl2, 250 mM NaCl and 0.1 mg/ml BSA. To the compound dilution, 15 μL of ENPP1 enzyme (R&D Systems; Cat #6136-EN-010) was added to each well (final conc. 1 nM) and the mix was pre-incubated for 15 min at RT. An equal volume (15 μL) containing cGAMP (Sigma, Cat #SML-1229) (final conc. 20 μM) was added to initiate the enzyme reaction and the reaction was incubated for 30 min at RT. The reaction was then stopped by heating at 90° C. for 3 minutes. 10 μl of reaction was then transferred to 384 well white, medium binding plates (Grenier, Cat #781075) to which 10 μl of AMP-Glo Reagent 1 was added and mixed well and incubated for 1 hour at 25° C. Following 60 min incubation, 20 μL of detection mixture was added to the enzyme reaction bringing the final volume to 40 μL. The reaction was further incubated for 60 min at RT after which the plates were read using BioTek Plate reader.
Analysis was done using the standard curve by non-linear regression, variable slope inhibitor curve fits (Graph-Pad Prism) and IC50's of compounds were determined wherever possible.

Sequence of ENPP-1 (Ectonucleotide Pyrophosphatase/Phosphodiesterase 1) (P22413 whole entry): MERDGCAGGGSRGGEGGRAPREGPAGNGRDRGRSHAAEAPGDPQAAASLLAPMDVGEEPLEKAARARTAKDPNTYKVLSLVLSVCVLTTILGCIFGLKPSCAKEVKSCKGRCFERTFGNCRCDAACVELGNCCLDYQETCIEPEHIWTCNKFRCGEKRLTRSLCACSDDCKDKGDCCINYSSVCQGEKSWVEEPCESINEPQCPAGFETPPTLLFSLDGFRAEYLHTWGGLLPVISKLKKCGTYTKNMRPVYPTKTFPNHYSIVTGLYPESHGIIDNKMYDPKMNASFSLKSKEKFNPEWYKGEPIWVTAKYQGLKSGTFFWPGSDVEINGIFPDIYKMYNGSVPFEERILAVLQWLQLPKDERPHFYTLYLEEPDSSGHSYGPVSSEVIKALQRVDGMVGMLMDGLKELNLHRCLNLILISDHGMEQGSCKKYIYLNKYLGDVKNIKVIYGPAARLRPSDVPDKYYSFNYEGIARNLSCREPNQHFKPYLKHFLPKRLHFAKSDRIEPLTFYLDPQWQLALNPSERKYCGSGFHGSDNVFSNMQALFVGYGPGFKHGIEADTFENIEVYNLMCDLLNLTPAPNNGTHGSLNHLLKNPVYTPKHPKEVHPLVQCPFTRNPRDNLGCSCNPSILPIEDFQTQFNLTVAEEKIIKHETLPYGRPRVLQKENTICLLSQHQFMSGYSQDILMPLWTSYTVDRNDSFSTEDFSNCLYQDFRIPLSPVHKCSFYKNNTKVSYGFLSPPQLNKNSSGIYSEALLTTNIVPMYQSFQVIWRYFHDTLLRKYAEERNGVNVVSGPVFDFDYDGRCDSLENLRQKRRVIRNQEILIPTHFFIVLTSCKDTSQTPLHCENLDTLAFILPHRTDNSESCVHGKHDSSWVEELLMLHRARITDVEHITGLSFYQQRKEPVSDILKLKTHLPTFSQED

Structure (SMILES)	IC50
Cc1cc(Cl)n2ncnc(N3CC4(CC(N(Cc5ccccc5)S(N)(=O)=O)C4)C3)c12 [Compound 1.112, N-benzyl-N-(2-(7-chloro-5-methylpyrrolo[2,1-f][1,2,4]triazin-4-yl)-2-azaspiro[3.3]heptan-6-yl)sulfamamide]	0.141 µM
COc1ccc2c(N3CC(CCCS(N)(=O)=O)C3)ncnc2c1 [Compound 1.56, 3-(1-(7-methoxyquinazolin-4-yl)azetidin-3-yl)propane-1-sulfonamide]	0.085 µM
Cc1cc(Cl)n2ncnc(N3CC4(CC(N(CC5CCC(F)(F)CC5)S(N)(=O)=O)C4)C3)c12 [Compound 1.118, N-(2-(7-chloro-5-methylpyrrolo[2,1-f][1,2,4]triazin-4-yl)-2-azaspiro[3.3]heptan-6-yl)-N-((4,4-difluorocyclohexyl)methyl)sulfamamide]	0.072 µM
Cc1cc(Cl)n2nc(C3CC3)nc(N3CC4(CC(N(C)S(N)(=O)=O)C4)C3)c12 [Compound 1.85]	> 2.39 µM
Cc1cc(Cl)n2ncnc(N3CC(CCN(C4CCC4)S(N)(=O)=O)C3)c12 [Compound 1.94, N-(2-(1-(7-chloro-5-methylpyrrolo[2,1-f][1,2,4]triazin-4-yl)azetidin-3-yl)ethyl)-N-cyclobutylsulfamamide]	> 3 µM
COc1ccc2ncnc(N3CC(CCNS(N)(=O)=O)C3)c2c1 [Compound 1.16, 4-(3-(2-sulfamoylaminoethyl)azetidine-1-yl)-6-methoxyquinazoline]	0.076 µM
Cc1cc(Cl)n2ncnc(N3CC4(CC(N(C[C@H](O)C(F)(F)F)S(N)(=O)=O)C4)C3)c12 (stereo in doubt) [Compound 1.126, N-(2-(7-chloro-5-methylpyrrolo[2,1-f][1,2,4]triazin-4-yl)-2-azaspiro[3.3]heptan-6-yl)-N-(3,3,3-trifluoro-2-hydroxypropyl)sulfamide]	0.023 µM
Cc1c(Cl)cn2ncnc(N3CC4(CC(N(C)S(N)(=O)=O)C4)C3)c12 [Compound 1.75, N-[2-(6-chloro-5-methylpyrrolo[2,1-f][1,2,4]triazin-4-yl)-2-azaspiro[3.3]hept-6-yl]-N-methylsulfuric diamide]	0.391 µM
CCCN(C1CC2(C1)CN(c1ncnn3c(Cl)cc(C)c13)C2)S(N)(=O)=O [Compound 1.97, N-(2-(7-chloro-5-methylpyrrolo[2,1-f][1,2,4]triazin-4-yl)-2-azaspiro[3.3]heptan-6-yl)-N-propylsulfamamide]	0.036 µM
CCN(C1CC2(C1)CN(c1ncnn3c(Cl)cc(C)c13)C2)S(N)(=O)=O [Compound 1.98, N-(2-(7-chloro-5-methylpyrrolo[2,1-f][1,2,4]triazin-4-yl)-2-azaspiro[3.3]heptan-6-yl)-N-ethylsulfamamide]	0.055 µM
COc1cc2ncc(C#N)c(N3CC(CCNS(N)(=O)=O)C3)c2cc1OC [Compound 1.12, (2-(1-(3-cyano-6,7-dimethoxyquinolin-4-yl)azetidin-3-yl)ethyl)aminisulfonamide]	0.004 µM
Cc1cc(Cl)n2ncnc(N3CC4(CC(N(CC(F)(F)F)S(N)(=O)=O)C4)C3)c12 [Compound 1.129, N-(2-(7-chloro-5-methylpyrrolo[1,2-f][1,2,4]triazin-4-yl)-2-azaspiro[3.3]heptan-6-yl)-N-(2,2,2-trifluoroethyl)sulfamamide]	0.047 µM
Cc1cc(F)n2ncnc(N3CC4(CC(N(C)S(N)(=O)=O)C4)C3)c12 [Compound 1.80, N-(2-(7-fluoro-5-methylpyrrolo[1,2-f][1,2,4]triazin-4-yl)-2-azaspiro[3.3]heptan-6-yl)-N-methylsulfamamide]	0.616 µM
COc1cc2ncnc(N3CC(CCNS(N)(=O)=O)C3)c2cc1Br [Compound 1.41, 4-(3-(2-sulfamoylaminoethyl)azetidine-1-yl)-6-bromo-7-methoxyquinazoline]	0.737 µM
NS(=O)(=O)NCCC1CN(c2ncnc3cc4c(cc23)OCO4)C1 [Compound 1.18, 8-(3-(2-sulfamoylaminoethyl)azetidine-1-yl)-[1,3]dioxolo[4,5-g]quinazoline]	> 3 µM
